Among the data in patent publication US10172868B2, “Substituted quinazolines for inhibiting kinase activity” (NeuPharma, Inc., priority 2013, dated 2019) are inhibition and IC50 values, retold here.

One assay has as its target EGFR (ErbB1) T790M L858R (Homo sapiens (Human), UniProt P00533, L858R/T790M). Put plainly: Z'-LYTE kinase inhibition assay, EGFR L858R/T790M. It counts as biochemical. Conditions: for inhibition at 0.0137 µM: read-out: % inhibition against EGFR L858R/T790M (Compound at 0.0137 μM); for IC50: read-out: IC50 against EGFR L858R/T790M. In short, it runs like this:
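IC50 taken from 10-point, 3-fold serial dilutions tested in 1% DMSO. The mutant kinase and peptide were prepared in HEPES pH 6.5 buffer with BRIJ-35, MgCl2, EGTA and NaN3, then reacted with ATP for 1 h at room temperature. Development reagent was added for a further hour before the fluorescence readout.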

For a further assay, the system named is A431 cells. Kind of assay: cells. Conditions: Homo sapiens, A-431, 72 h, read-out: IC50 in A431 cells.
The next assay addresses EGFR (ErbB1) (Homo sapiens (Human), UniProt P00533). Kind of assay: Z'-LYTE kinase inhibition assay, EGFR. Conditions: for inhibition at 0.041 µM: read-out: % inhibition against EGFR (Compound at 0.041 μM). It counts as biochemical. In short, it runs like this: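 IC50 values derived from 10-point, 3-fold compound dilution series (1% DMSO final) using Z'-LYTE fluorescence readout after 60-min development. Reaction: EGFR (1.1-5.25 ng) with 2 μM peptide, 60 min at room temperature in HEPES pH 7.5 buffer containing MgCl2, MnCl2, EGTA, DTT and BRIJ-35.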

Another assay deals with H1975 cells. Put plainly: Inhibition of cancer cell growth, MTT assay, H1975. The following applies: Homo sapiens, NCI-H1975, 72 h, read-out: IC50 in H1975 cells.

Some results are limits rather than exact numbers.

EGFR (ErbB1), sequence (P00533 25-1210): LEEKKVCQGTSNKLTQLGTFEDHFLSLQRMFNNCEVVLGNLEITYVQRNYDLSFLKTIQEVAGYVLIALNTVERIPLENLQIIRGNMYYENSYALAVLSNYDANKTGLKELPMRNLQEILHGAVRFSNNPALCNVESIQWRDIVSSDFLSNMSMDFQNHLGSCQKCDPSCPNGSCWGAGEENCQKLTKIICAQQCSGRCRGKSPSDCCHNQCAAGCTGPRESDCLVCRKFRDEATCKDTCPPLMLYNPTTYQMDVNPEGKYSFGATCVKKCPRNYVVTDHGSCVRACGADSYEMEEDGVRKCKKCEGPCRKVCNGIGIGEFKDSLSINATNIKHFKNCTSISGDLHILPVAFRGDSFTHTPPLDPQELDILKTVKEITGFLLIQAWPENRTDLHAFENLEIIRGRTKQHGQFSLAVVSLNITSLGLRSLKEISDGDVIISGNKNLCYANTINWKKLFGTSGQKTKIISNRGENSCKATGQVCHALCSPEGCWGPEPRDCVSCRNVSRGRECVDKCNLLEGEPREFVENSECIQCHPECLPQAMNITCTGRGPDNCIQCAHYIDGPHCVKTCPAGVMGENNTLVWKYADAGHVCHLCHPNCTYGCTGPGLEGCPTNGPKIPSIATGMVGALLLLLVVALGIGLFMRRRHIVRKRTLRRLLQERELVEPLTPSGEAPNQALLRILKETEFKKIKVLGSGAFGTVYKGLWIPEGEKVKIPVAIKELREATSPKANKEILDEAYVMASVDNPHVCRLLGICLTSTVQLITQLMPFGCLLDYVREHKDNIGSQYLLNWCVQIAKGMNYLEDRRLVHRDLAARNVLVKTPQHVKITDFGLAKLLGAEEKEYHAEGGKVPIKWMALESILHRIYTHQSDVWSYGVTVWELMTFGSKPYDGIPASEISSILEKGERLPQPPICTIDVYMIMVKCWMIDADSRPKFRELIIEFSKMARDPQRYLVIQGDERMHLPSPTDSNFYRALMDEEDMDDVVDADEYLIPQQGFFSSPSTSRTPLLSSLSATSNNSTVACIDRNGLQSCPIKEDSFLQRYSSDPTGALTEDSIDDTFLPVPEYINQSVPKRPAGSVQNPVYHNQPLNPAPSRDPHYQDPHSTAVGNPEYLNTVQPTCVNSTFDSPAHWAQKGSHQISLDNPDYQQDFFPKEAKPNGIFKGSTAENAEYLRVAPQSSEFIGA
EGFR (ErbB1) T790M L858R, sequence (P00533 25-1210 T790M/L858R): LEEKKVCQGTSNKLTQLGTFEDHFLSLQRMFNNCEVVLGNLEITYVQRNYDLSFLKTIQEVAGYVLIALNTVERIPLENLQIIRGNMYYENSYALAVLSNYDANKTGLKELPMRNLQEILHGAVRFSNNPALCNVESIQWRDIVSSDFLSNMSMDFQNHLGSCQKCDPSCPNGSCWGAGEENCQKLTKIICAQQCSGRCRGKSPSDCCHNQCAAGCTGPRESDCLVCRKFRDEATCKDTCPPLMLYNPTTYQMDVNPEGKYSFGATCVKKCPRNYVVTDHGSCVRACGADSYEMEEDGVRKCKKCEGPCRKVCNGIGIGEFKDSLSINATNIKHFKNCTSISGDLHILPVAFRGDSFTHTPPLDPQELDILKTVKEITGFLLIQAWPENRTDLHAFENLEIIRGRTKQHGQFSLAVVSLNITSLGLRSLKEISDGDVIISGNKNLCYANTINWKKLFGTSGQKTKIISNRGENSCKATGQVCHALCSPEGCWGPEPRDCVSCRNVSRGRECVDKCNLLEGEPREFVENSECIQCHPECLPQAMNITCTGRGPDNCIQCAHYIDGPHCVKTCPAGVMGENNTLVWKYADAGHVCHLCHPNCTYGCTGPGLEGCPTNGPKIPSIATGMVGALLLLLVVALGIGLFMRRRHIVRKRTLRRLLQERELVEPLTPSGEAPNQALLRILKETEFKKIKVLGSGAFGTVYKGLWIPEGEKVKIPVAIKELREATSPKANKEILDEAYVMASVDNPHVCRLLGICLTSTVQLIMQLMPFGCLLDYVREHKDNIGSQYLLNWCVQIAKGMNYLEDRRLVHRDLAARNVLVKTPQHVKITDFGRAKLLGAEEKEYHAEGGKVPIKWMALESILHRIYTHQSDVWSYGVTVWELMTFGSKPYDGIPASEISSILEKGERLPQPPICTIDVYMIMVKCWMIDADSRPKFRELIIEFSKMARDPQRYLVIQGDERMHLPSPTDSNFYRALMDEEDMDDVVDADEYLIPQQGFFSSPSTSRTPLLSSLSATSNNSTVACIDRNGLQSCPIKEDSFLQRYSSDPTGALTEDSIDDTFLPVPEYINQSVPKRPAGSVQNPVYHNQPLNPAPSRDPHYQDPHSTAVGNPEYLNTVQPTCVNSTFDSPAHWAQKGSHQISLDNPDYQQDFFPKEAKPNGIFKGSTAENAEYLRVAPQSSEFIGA

Consider `C=CC(=O)Nc1cccc(-c2cccc3cnc(Nc4ccc(N5CCN(C)CC5)cc4Cl)nc23)c1` [Example C043, N-(3-(2-((2-chloro-4-(4-methylpiperazin-1-yl)phenyl)amino)quinazolin-8-yl)phenyl)acrylamide], for which the inhibition at 0.0137 µM on EGFR (ErbB1) T790M L858R was above 50%. For the same molecule, the figures for the IC50 in the assay on A431 cells and with H1975 cells were above 500 nM and 100 to 500 nM, respectively. Further, the inhibition at 0.041 µM on EGFR (ErbB1) was above 50%.
As to `C=CC(=O)Nc1cccc(-c2cccc3cnc(Nc4ccc(N5CCN(C)CC5)cc4)nc23)c1F` [Example C045, N-(2-fluoro-3-(2-((4-(4-methylpiperazin-1-yl)phenyl)amino)quinazolin-8-yl)phenyl)acrylamide], the inhibition at 0.0137 µM on EGFR (ErbB1) T790M L858R was above 50%. Moreover, the IC50 at EGFR (ErbB1) T790M L858R was below 100 nM; in the assay on A431 cells, 100 to 500 nM; in the assay with H1975 cells it was below 100 nM. At EGFR (ErbB1), the inhibition at 0.041 µM was above 50%.
In the case of `C=CC(=O)Nc1cncc(-c2cccc3cnc(Nc4ccc(N5CCN(C)CC5)nc4)nc23)c1` [Example C047, N-(5-(2-((6-(4-methylpiperazin-1-yl)pyridin-3-yl)amino)quinazolin-8-yl)pyridin-3-yl)acrylamide], the inhibition at 0.0137 µM at EGFR (ErbB1) T790M L858R is above 50%. Besides, the IC50 in the assay on A431 cells was above 500 nM; in the assay with H1975 cells, 100 to 500 nM. Further, the inhibition at 0.041 µM on EGFR (ErbB1) was above 50%.
`C=CC(=O)Nc1cccc(-c2cccc3cnc(Nc4ccc(N5CCN(C)CC5)nc4)nc23)c1F` [Example C048, N-(2-fluoro-3-(2-((6-(4-methylpiperazin-1-yl)pyridin-3-yl)amino)quinazolin-8-yl)phenyl)acrylamide]: at EGFR (ErbB1) T790M L858R, the inhibition at 0.0137 µM is above 50%. Besides, the IC50 is below 100 nM on EGFR (ErbB1) T790M L858R, above 500 nM in the assay on A431 cells, below 100 nM on EGFR (ErbB1) (read-out: IC50 against EGFR) and below 100 nM in the assay on H1975 cells. Also, the inhibition at 0.041 µM at EGFR (ErbB1) was above 50%.
Take `C=CC(=O)Nc1cccc(-c2cccc3cnc(Nc4ccc(N5CCN(C(C)=O)CC5)cc4)nc23)c1F` [Example C049, N-(3-(2-((4-(4-acetylpiperazin-1-yl)phenyl)amino)quinazolin-8-yl)-2-fluorophenyl)acrylamide]: the inhibition at 0.0137 µM at EGFR (ErbB1) T790M L858R was above 50%. The IC50 at EGFR (ErbB1) T790M L858R was below 100 nM; in the assay with A431 cells, above 500 nM; with H1975 cells it was 100 to 500 nM. In addition, the inhibition at 0.041 µM at EGFR (ErbB1) was above 50%.
As to `C=CC(=O)Nc1cccc(-c2cccc3cnc(Nc4ccc(N5CCN(CC(F)F)CC5)cc4)nc23)c1` [Example C056, N-(3-(2-((4-(4-(2,2-difluoroethyl)piperazin-1-yl)phenyl)amino)quinazolin-8-yl)phenyl)acrylamide], the inhibition at 0.0137 µM at EGFR (ErbB1) T790M L858R was below 50%. Also, the IC50 with A431 cells is above 500 nM; in the assay with H1975 cells, 100 to 500 nM. Also, on EGFR (ErbB1), the inhibition at 0.041 µM is below 50%.
As to `C=CC(=O)Nc1cc(-c2cccc3cnc(Nc4ccc(N5CCN(C)CC5)cc4)nc23)ccn1` [Example C057, N-(4-(2-((4-(4-methylpiperazin-1-yl)phenyl)amino)quinazolin-8-yl)pyridin-2-yl)acrylamide], the inhibition at 0.0137 µM on EGFR (ErbB1) T790M L858R is above 50%. In addition, the results for the IC50 at EGFR (ErbB1) T790M L858R, in the assay on A431 cells and in the assay with H1975 cells were below 100 nM, 100 to 500 nM and 100 to 500 nM, respectively. The inhibition at 0.041 µM at EGFR (ErbB1) was above 50%.
Regarding `C=CC(=O)Nc1cncc(-c2cccc3cnc(Nc4ccc(N5CCN(CCF)CC5)cc4)nc23)c1` [Example C058, N-(5-(2-((4-(4-(2-fluoroethyl)piperazin-1-yl)phenyl)amino)quinazolin-8-yl)pyridin-3-yl)acrylamide], at EGFR (ErbB1) T790M L858R, the inhibition at 0.0137 µM is above 50%. In addition, the results for the IC50 with A431 cells and with H1975 cells were above 500 nM and below 100 nM, respectively. In addition, the inhibition at 0.041 µM on EGFR (ErbB1) is below 50%.
The matching figures for `CC(=O)N1CCN(c2ccc(Nc3ncc4cccc(-c5cccc(NC(=O)/C=C/CN(C)C)c5Cl)c4n3)cc2)CC1` [Example C060, (E)-N-(3-(2-((4-(4-acetylpiperazin-1-yl)phenyl)amino)quinazolin-8-yl)-2-chlorophenyl)-4-(dimethylamino)but-2-enamide]: above 50%, above 500 nM, 100 to 500 nM and below 50%.
As for `C=CC(=O)Nc1cccc(-c2cccc3cnc(Nc4ccc(N5CCN(CCF)CC5)cc4)nc23)c1F` [Example C061, N-(2-fluoro-3-(2-((4-(4-(2-fluoroethyl)piperazin-1-yl)phenyl)amino)quinazolin-8-yl)phenyl)acrylamide], on EGFR (ErbB1) T790M L858R, the inhibition at 0.0137 µM was above 50%. Besides, the results for the IC50 at EGFR (ErbB1) T790M L858R, in the assay with A431 cells and in the assay on H1975 cells were below 100 nM, above 500 nM and below 100 nM, respectively. The inhibition at 0.041 µM on EGFR (ErbB1) was below 50%.
Consider `C=CC(=O)Nc1cccc(-c2cccc3cnc(Nc4ccc(N5CCN(C)CC5)cc4)nc23)c1OC` [Example C063, N-(2-methoxy-3-(2-((4-(4-methylpiperazin-1-yl)phenyl)amino)quinazolin-8-yl)phenyl)acrylamide], for which the inhibition at 0.0137 µM on EGFR (ErbB1) T790M L858R was above 50%. The IC50 at EGFR (ErbB1) T790M L858R is below 100 nM; in the assay on A431 cells, above 500 nM; in the assay with H1975 cells, below 100 nM. Also, the inhibition at 0.041 µM on EGFR (ErbB1) was above 50%.
`C=CC(=O)Nc1cccc(-c2cccc3cnc(Nc4ccc(N5CCN(C)CC5)cc4)nc23)c1C#N` [Example C068, N-(2-cyano-3-(2-((4-(4-methylpiperazin-1-yl)phenyl)amino)quinazolin-8-yl)phenyl)acrylamide]: on EGFR (ErbB1) T790M L858R, the inhibition at 0.0137 µM was above 50%. Also, the IC50 on EGFR (ErbB1) T790M L858R was below 100 nM; in the assay on A431 cells, above 500 nM; with H1975 cells it was 100 to 500 nM. Further, the inhibition at 0.041 µM on EGFR (ErbB1) was above 50%.
`C=CC(=O)Nc1cccc(-c2cccc3cnc(Nc4ccc(N5CCN(C)CC5)c(F)c4)nc23)c1` [Example C069, N-(3-(2-((3-fluoro-4-(4-methylpiperazin-1-yl)phenyl)amino)quinazolin-8-yl)phenyl)acrylamide]: the inhibition at 0.0137 µM at EGFR (ErbB1) T790M L858R is above 50%. The IC50 with A431 cells and in the assay with H1975 cells was below 100 nM each time. The inhibition at 0.041 µM on EGFR (ErbB1) is above 50%.
Consider `C=CC(=O)Nc1cccc(-c2cccc3cnc(Nc4ccc(N5CCN(C)CC5)c(Cl)c4)nc23)c1` [Example C072, N-(3-(2-((3-chloro-4-(4-methylpiperazin-1-yl)phenyl)amino)quinazolin-8-yl)phenyl)acrylamide], for which the inhibition at 0.0137 µM on EGFR (ErbB1) T790M L858R was above 50%. Besides, the IC50 was below 100 nM at EGFR (ErbB1) T790M L858R, 100 to 500 nM in the assay on A431 cells and 100 to 500 nM in the assay on H1975 cells. Also, on EGFR (ErbB1), the inhibition at 0.041 µM is below 50%.
For `C=CC(=O)Nc1cccc(-c2cccc3cnc(Nc4ccc(N5CCN(C)CC5)c(C#N)c4)nc23)c1` [Example C074, N-(3-(2-((3-cyano-4-(4-methylpiperazin-1-yl)phenyl)amino)quinazolin-8-yl)phenyl)acrylamide], at EGFR (ErbB1) T790M L858R, the inhibition at 0.0137 µM is above 50%. In addition, the IC50 at EGFR (ErbB1) T790M L858R is below 100 nM; with A431 cells it was 100 to 500 nM; in the assay on H1975 cells, 100 to 500 nM. On EGFR (ErbB1), the inhibition at 0.041 µM was below 50%.
Take `C=CC(=O)Nc1cccc(-c2cccc3cnc(Nc4ccc(OC5CN(CCF)C5)cc4)nc23)c1` [Example C078, N-(3-(2-((4-((1-(2-fluoroethyl)azetidin-3-yl)oxy)phenyl)amino)quinazolin-8-yl)phenyl)acrylamide]: on EGFR (ErbB1) T790M L858R, the inhibition at 0.0137 µM was above 50%. Further, the IC50 on EGFR (ErbB1) T790M L858R is below 100 nM; with A431 cells, above 500 nM; with H1975 cells, below 100 nM. Besides, the inhibition at 0.041 µM on EGFR (ErbB1) was above 50%.
For `C=CC(=O)Nc1cccc(-c2cccc3cnc(Nc4ccc(OC5CCN(C)CC5F)cc4)nc23)c1F` (centres unmarked) [Example C080, N-(2-fluoro-3-(2-((4-((3-fluoro-1-methylpiperidin-4-yl)oxy)phenyl)amino)quinazolin-8-yl)phenyl)acrylamide], the inhibition at 0.0137 µM at EGFR (ErbB1) T790M L858R was above 50%. The IC50 at EGFR (ErbB1) T790M L858R is below 100 nM; with A431 cells, 100 to 500 nM; with H1975 cells, below 100 nM. The inhibition at 0.041 µM at EGFR (ErbB1) was above 50%.
For `C=CC(=O)Nc1cccc(-c2c(F)ccc3cnc(Nc4ccc(N5CCN(C)CC5)cc4)nc23)c1` [Example C087, N-(3-(7-fluoro-2-((4-(4-methylpiperazin-1-yl)phenyl)amino)quinazolin-8-yl)phenyl)acrylamide], the inhibition at 0.0137 µM on EGFR (ErbB1) T790M L858R is above 50%. In addition, the values for the IC50 at EGFR (ErbB1) T790M L858R, in the assay on A431 cells and with H1975 cells were below 100 nM, 100 to 500 nM and 100 to 500 nM, respectively. In addition, the inhibition at 0.041 µM at EGFR (ErbB1) is above 50%.
With `C=CC(=O)Nc1cccc(-c2cccc3cnc(Nc4ccc(N5CCOC5=O)cc4)nc23)c1` [Example C091, N-(3-(2-((4-(2-oxooxazolidin-3-yl)phenyl)amino)quinazolin-8-yl)phenyl)acrylamide], the inhibition at 0.0137 µM at EGFR (ErbB1) T790M L858R is below 50%. In addition, the figures for the IC50 in the assay on A431 cells and in the assay on H1975 cells were above 500 nM and 100 to 500 nM, respectively. For the same molecule, the inhibition at 0.041 µM at EGFR (ErbB1) is below 50%.
As for `C=CC(=O)Nc1cccc(-c2cccc3cnc(Nc4ccc(N5CCN(CC(N)=O)CC5)c(F)c4)nc23)c1` [Example C164, N-(3-(2-((4-(4-(2-amino-2-oxoethyl)piperazin-1-yl)-3-fluorophenyl)amino)quinazolin-8-yl)phenyl)acrylamide], on EGFR (ErbB1) T790M L858R, the inhibition at 0.0137 µM is below 50%. Besides, at EGFR (ErbB1), the inhibition at 0.041 µM is below 50%. For the same molecule, the IC50 in the assay with H1975 cells is 100 to 500 nM.
